Literature values as cited in US6924311B2, “Methods for affecting various diseases utilizing LXR compounds” (X-Ceptor Therapeutics, Inc., priority 2001, dated 2005).

Conditions: db/db mice, known anti-diabetic RXR agonist, positive control; cited from earlier work

CC1(C)CCC(C)(C)c2cc(C3(c4ccc(C(=O)O)cn4)CC3)c(F)cc21 [Compound 2, 6-[1-(3-Fluoro-5,5,8,8-tetramethyl-5,6,7,8-tetrahydro-napthalen-2-yl)-cyclopropyl]-nicotinic acid]
effect on blood glucose levels: effectively lower blood glucose levels in db/db mice
